Measured values as given in patent publication US10759835B2, “Monomeric streptavidin mutants, methods of using the same and processes of manufacturing proteins” (The Research Foundation for The State University of New York, priority 2016, dated 2020).

Assay: Fluorescence polarization spectroscopy, biotin dissociation rate (koff)
Format: binding
Conditions: 37° C.
Protocol: FIG. 4. In vitro characterization of purified mSA mutants. a) Stability of mSA-RF and mSA-RWT in PBS was measured by circular dichroism spectroscopy with or without biotin. b) Fluorescence polarization spectroscopy was used to measure the dissociation rate of biotin-fluorescein. The dissociation rate, koff, was computed by fitting normalized fluorescence polarization data, or bound fraction f, to an exponentially decaying function, i.e. ƒ=e^−k^off^*t The measurements were taken at 37° C. c) The equilibrium affinity of binding Kd between mSA-RF and biotin-fluorescein was measured by FP. d) mSA-S25H and mSA-RF were analyzed by size exclusion chromatography to estimate their molecular weights in solution. […]
The binding of biotinylated fluorescein (bf, AnaSpec) was measured using a microplate reader (SpectraMax® i3 Microplate reader from Molecular Devices) in flat bottom 96 well plates (Sterilin Ltd). […] After overnight incubation at room temperature, the fluorescence polarization values were measured and fit to the quadratic binding equation (Hsu and Park, 2010, J Mol Graph Model, 29, 295-308). […] To observe dissociation of bf, excess free biotin was added to a final concentration of 100 μM and recording of fluorescence was started immediately. The intensity of polarized fluorescence was measured at various time points and normalized with respect to the value at t=0 min. […]

In the case of “Wt SA: wild type streptavidin, tetrameric, SEQ ID NO: 20 [reference compound]”, the “t1/2” value (dissociation half-life t1/2=0.693/koff, biotin-fluorescein) is reported as 751 ± 261 min and the “Koff(×10^−3 min^−1)” value (dissociation of biotin-fluorescein, excess free biotin 100 μM) is reported as 0.923 ± 0.0253 ×10^−3 min^−1.
